Article PMC9614474 (Plant Physiology, 2022)

Target: T1, ChElp2 (Colletotrichum higginsianum, UniProt H1UVH3)
T1 construct: gene ELP2
Conditions: 25 °C

T1 sequence (H1UVH3 19-176): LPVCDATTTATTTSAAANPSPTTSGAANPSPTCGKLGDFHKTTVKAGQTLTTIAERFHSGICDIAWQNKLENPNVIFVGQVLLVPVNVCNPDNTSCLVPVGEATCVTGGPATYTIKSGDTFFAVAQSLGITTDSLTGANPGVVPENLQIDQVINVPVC

Q: For `CC(=O)N[C@H]1[C@H](O[C@H]2[C@H](O)[C@@H](NC(C)=O)[C@H](O[C@H]3[C@H](O)[C@@H](NC(C)=O)C(O)O[C@@H]3CO)O[C@@H]2CO)O[C@H](CO)[C@@H](O[C@@H]2O[C@H](CO)[C@@H](O[C@@H]3O[C@H](CO)[C@@H](O[C@@H]4O[C@H](CO)[C@@H](O)[C@H](O)[C@H]4NC(C)=O)[C@H](O)[C@H]3NC(C)=O)[C@H](O)[C@H]2NC(C)=O)[C@@H]1O` (stereo partly shown) [Chi6, hexaacetylchitohexaose], which Kd is on record?
A: The Kd was 5.03 ± 0.241 µM.
